The values below are quoted from earlier work in patent US20230000786A1, “TREATMENT OF SKIN DISORDERS WITH TOPICAL COMPOSITIONS COMPRISING TAPINAROF AND A PDE4 INHIBITOR” (Sol-Gel Technologies Ltd., priority 2019, published 2023).

Where two headings read alike, the source gives them in different places. Some results are limits rather than exact numbers.

Series [1] concerns proinflammatory mediators, including interleukin-6 and interleukin-17A. The settings on record: mouse models.
The test system is the same in series [2]. The note with it: in vitro human skin studies.
For series [3] the following is noted: 1% tapinarof arm compared with 0.5% arm or vehicle.
The conditions of series [4]: psoriasis treatment, single drug; placebo 20.2%.
The conditions of series [5]: across all groups treated.
Setting [6] is: interleukin-6 and interleukin-17A.

In the case of `CC(C)c1c(O)cc(/C=C/c2ccccc2)cc1O` [Tapinarof, 3,5-dihydroxy-4-isopropyl-trans-stilbene], the skin barrier function entry in series [1] and in series [2] was “enhance skin barrier function” each time. For the same compound, the “inhibition of specific proinflammatory mediators” value in series [1] (setting [6]) and in series [2] (setting [6]) was “inhibit specific proinflammatory mediators” throughout. Besides, in series [3], the efficacy result is listed as “higher efficacy”. Besides, the onset of action entry in series [3] is given as “quicker onset of action”. The adverse effects in series [4] is 44.5%. For the same compound, the folliculitis side-effect in series [5] is reported as 9%. The contact dermatitis side-effect in series [5] (listed among most common side-effects (>5%)) is on record as > 5%.

As for `C=C1/C(=C\C=C2/CCC[C@]3(C)[C@@H]([C@H](C)/C=C/[C@@H](O)C4CC4)CC[C@@H]23)C[C@@H](O)C[C@@H]1O` [calcipotriene], the adverse effects in series [4] is listed as 19.5%.
